Here are results for three molecules from patent publication US20240293336A1, “PERCUTANEOUS ABSORPTION FORMULATION FOR TREATING SLEEP DISORDERS” (SINSIN PHARM CO., LTD., priority 2016, published 2024).

Each structure is given as a SMILES string.

Broadly, the bioavailability is dose-corrected exposure relative to a reference, in per cent.

A short description of data set [1]: Observation of crystal formation in the patch. In kind it is physicochemical. The procedure: (§1) 10 wt % melatonin was placed in a 70 mL vial and dissolved in methanol, and then 90 wt % adhesive was added thereto, followed by mixing in a roll mixer for 2 hours. Next, the mixture was allowed to stand for 30 minutes to remove bubbles, after which a silicone-treated polyethylene terephthalate release film was placed on a coating machine, and the mixed adhesive was dried, and then coated onto the release film to 70 μm. Thereafter, the resultant was dried in an oven at 80° C. for 3 minutes, and then a supporting layer film was laminated thereon and compressed using a roller press. The resultant was cut of a patch cutter, thereby manufacturing a patch having an area of 10 cm^2. Next, the physical properties of the patch and crystal formation were observed, and a percutaneous absorption test was performed.
as §1, with “Melatonin and a solubilizing agent were placed” for “10 wt % melatonin was placed”, “then an” for “then 90 wt %”, “coated on” for “coated onto”, “a support” for “a supporting”, “cut by using” for “cut of”, “were observed.” for “were observed, and a percutaneous absorption test was performed.”
A crystallization inhibitor was placed and dissolved in a 70 mL vial, and then a solubilizing agent, an antioxidant and melatonin were added and dissolved, after which an adhesive was added thereto, followed by mixing in a roll mixer for 2 hours. Next, the mixture was allowed to stand for 30 minutes to remove bubbles, after which a silicone-treated polyethylene terephthalate release film was placed on a coating machine, and the mixed adhesive was dried, and then coated on the release film to 70 μm. Thereafter, the resultant was dried in an oven at 80° C. for 3 minutes, and then a support layer film was laminated thereon and compressed using a roller press. The resultant was cut by using a patch cutter, thereby manufacturing a patch having an area of 10 cm^2. Next, the physical properties of the patch and crystal formation were observed.
A crystallization inhibitor was placed and dissolved in a 70 mL vial, and then a solubilizing agent, an antioxidant, a percutaneous absorption enhancer and melatonin were added thereto and dissolved, after which an adhesive was added thereto, followed by mixing in a roll mixer for 2 hours. […]

For data set [2] the following is noted: melatonin administered orally; cited from earlier work.

For `CN1CCCC1=O` [N-methyl pyrrolidone], in data set [1], the “Crystal formation (after 1 month) (microscopic observation)” value is given as “fine crystal formation” and the “crystal formation in visual observation” value was “no crystal formation”.
The matching figures for `CCOCCOCCO` [Transcutol CG, ethoxydiglycol]: “fine crystal formation” and “no crystal formation”.
In the case of `COc1ccc2[nH]cc(CCNC(C)=O)c2c1` [melatonin], in data set [2], the bioavailability is 20% and the half-life result is recorded as “about 1 hour”.
